Test results from patent US20150118229A1, “JAK1 SELECTIVE INHIBITOR AND USES THEREOF” (ABBVIE INC., priority 2013, published 2015).

Legend:
[1] = tested on: adjuvant-induced arthritis (paw swelling, bone erosion); test: Adjuvant-induced arthritis (AIA) in Lewis rats; format: in vivo
Method: The inflammation appears in the contra-lateral (left) hind paw seven days after the initial immunization. […] Rats are lightly anesthetized with an inhalant anesthetic (isoflurane) and the contra-lateral (left) hind paw is dipped into the plethysmograph and the paw volume is recorded. The rats are scored every other day up to day 17 after immunization. […] Bone volume and density is determined for a 360 μm (200 slice) vertical section encompassing the tarsal section of the paw. […] Drug exposure is determined in the plasma using LC/MS.

[2] = tested on: peripheral NK cell counts; test: Peripheral NK cell counts in healthy rats; format: in vivo, rat; conditions: rat
Text: The correlation of this effect with ex vivo cytokine signaling inhibition is shown in the right panel of FIG. 6. These measurements correlated well, confirming the Jak dependency of the NK cell count endpoint.
To establish the relationship between changes in NK cell counts and nonclinical efficacy, the changes in NK cell counts were compared with decreases in rat AIA disease activity per unit exposure.

With `C[C@@H]1CCN(C(=O)CC#N)C[C@@H]1N(C)c1ncnc2[nH]ccc12` [Tofacitinib, reference compound] the “efficacious exposure (AUC60), PK/PD modeling” value ([1]; AIA rats, about 60% inhibition of paw swelling) was ~300 ng·h/mL, the “AUC60 (60% inhibition of paw swelling), total AUC0-12” value ([1]; oral bid, last day of study) was 392 ± 121 ng·h/mL and the “AUC60, fraction unbound AUC0-12” value ([1]; oral bid, last day of study) was 300 ± 98 ng·h/mL. For the same compound, the “Paw Swelling (exposure)” value ([1]; rat AIA) was 514 ng·h/mL, the “inhibition of Paw Swelling reached at about the same level of reticulocyte inhibition” value ([1]; rat AIA vs reticulocyte deployment) was “about 60%” and the “NK Counts (exposure)” value [2] was 391 ng·h/mL. The “NK cell count decrease at about 60% efficacy (inhibition of paw swelling)” value [2] was “about 80%”.
